Numbering of substitutions follows the chain as printed.
Columns and labels:
Experiment in all cases: Fluo-4 calcium assay, HEK293T + Galpha16gust44
Type in all cases: cell-based
[1] = biological target: T1, hTAS2R16 (ssr3-hTAS2R16) (Homo sapiens, UniProt Q9NYV7, F240Y)
T1 sequence (Q9NYV7 1-291 F240Y): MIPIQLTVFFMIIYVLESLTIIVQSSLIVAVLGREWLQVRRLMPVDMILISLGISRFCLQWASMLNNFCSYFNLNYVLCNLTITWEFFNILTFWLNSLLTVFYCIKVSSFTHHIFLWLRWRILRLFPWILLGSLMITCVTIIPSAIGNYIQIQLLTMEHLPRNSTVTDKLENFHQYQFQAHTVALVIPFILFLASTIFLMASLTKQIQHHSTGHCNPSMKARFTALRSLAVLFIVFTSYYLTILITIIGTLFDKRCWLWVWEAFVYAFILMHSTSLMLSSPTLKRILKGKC

[2] = biological target: T2, hTAS2R16 (ssr3-hTAS2R16) (Homo sapiens, UniProt Q9NYV7, F240W)
T2 sequence (Q9NYV7 1-291 F240W): T1 sequence (Q9NYV7 1-291 F240Y) with Y240W

[3] = biological target: T3, hTAS2R16 (ssr3-hTAS2R16) (Homo sapiens, UniProt Q9NYV7, E86D)
T3 sequence (Q9NYV7 1-291 E86D): T1 sequence (Q9NYV7 1-291 F240Y) with E86D, Y240F

[4] = biological target: T4, hTAS2R16 (ssr3-hTAS2R16) (Homo sapiens, UniProt Q9NYV7, F93L)
T4 sequence (Q9NYV7 1-291 F93L): T1 sequence (Q9NYV7 1-291 F240Y) with F93L, Y240F

- EC50 [1]: 2440 µM
- EC50 [2]: 2050 µM
- EC50 [3]: 2130 µM
- EC50 [4]: 4150 µM
Compound: OCc1ccccc1O[C@@H]1O[C@H](CO)[C@@H](O)[C@H](O)[C@H]1O [salicin]

Source: paper PMC2934701 (The Journal of Biological Chemistry, 2010)
